Laboratory results published in patent US20120003270A1, “6-SUBSTITUTED ISOFLAVONOID COMPOUNDS AND USES THEREOF” (priority 2008, published 2012).
Marks after values point to notes of the source that are not given here.

Legend:
RAW 264.7 = experiment: Toxicity in RAW 264.7; type: cell-based, mouse
eNOS = eNOS mRNA expression in HCAECs (real-time PCR); type: cell-based, human; settings: 10 μM, 24 hr; for Average increase in the expression of eNOS: average of experiments
Method: HCAECs were grown as described above. Because cell viability was less than 100% at 30 and 100 μM, eNOS experiments were conducted at one concentration (10 μM). After incubation, total RNA was extracted using TRI reagent (Sigma, St Louis, Mo., USA), following the manufacturer's protocol. RNA was quantitated and normalized to 100 ng/μl using the SYBR Green II assay (Molecular Probes, Eugene, Oreg., USA) before being reverse transcribed using iScript (Bio-Rad, Hercules, Calif., USA). eNOS (sense 5′-CCATCTACAGCTTTCCGGCGC-3′ and antisense 5′-CTCTGGGGTGGCCTTCAGCA-3′) and 18S (sense 5′-CGGCTACCACATCCAAGGAA-3′ and antisense 5′-GCT GGA ATT ACC GCG GCT-3′) mRNA levels were determined by real-time PCR using iQ SYBR Green Supermix (Bio-Rad) in an iCycler iQ RealTime thermocyler detection system (Bio-Rad Laboratories). The cycling parameters were 95° C. for 30 seconds, 62° C. for 30 seconds, and 72° C. for 30 seconds for 40 cycles, and real-time data was collected at each cycle. There were six replicates.

HCAECs = experiment: HCAEC cell viability; type: cell-based, human; settings: 10 μM, 24 hr incubation
[1] = test system: serum-treated zymozan air pouch inflammation; experiment: Rat air pouch assay; type: in vivo; settings: for Cells in lavage fluid (×10^−7): intrapouch, mean ± SD; for Cells in lavage fluid (×10^−7) / PMN in tissue sections (per 100 squares): 4 h after STZ; for PMN in tissue sections (per 100 squares): pouch wall
Method: Air pouches were raised on the dorsum of female Dark Agouti rats, approximately seven weeks of age. To promote the formation of a cellular membrane lining the inside of each pouch, the pouches were maintained by re-inflating on days 2 and 5 after the initial injection of air. On re-inflation, the pouch was first deflated to ensure the needle was positioned correctly, before being re-inflated with 2 mL of sterile air. Using this protocol, the pouches remained inflated until use on day 7, when they were injected with 0.5 ml of either test compound or vehicle control. After 15 min, air pouches were injected with serum-treated zymozan (STZ—500 μg). Lavage of the air pouch (4×2 ml lavages) was performed at 4 h and leucocytes counted, after which the rats were killed, the air pouch excised and processed in formalin for histology. The sections were blinded to the person counting. Using a graticule with 100 squares and the 40× objective, the number of polymorphs (PMN) was counted in the pouch lining at 10 different and non-adjacent sites. Group sizes were 5-6 rats. Data were analysed for statistical significance within each experiment and using an unpaired t test. Compounds (1) and (3) were examined in this assay.

[2] = Interaction with Cu(II) (UV/Vis absorption spectra); type: physicochemical; settings: 25 μM compound + 25 μM CuSO4, 1:1 molar ratio, pH 7.2
Method: The non-specific binding of compound (1) to Cu^++ was also examined in duplicate on different days. A stock solution of test compounds was prepared in DMSO at a concentration of 5 mM. The UV/Vis absorption spectra of was then determined between 200 and 800 nm after dilution of test compounds to 25 μM in phosphate buffer (10 mM, pH 7.2, chelex treated). Interactions of the compounds with Cu(II) were determined by scanning a second overlaying absorption spectrum over 200 to 800 nm, in which 25 μM CuSO4 solution was added to a fresh 25 μM solution of test compounds and mixed for 20 seconds.

[3] = test system: splenocytes (T and B cells); experiment: Mitogen-stimulated splenocyte proliferation (MTT); type: cell-based, mouse; settings: 10 μM, 3 day incubation, ConA or LPS
Method: Male Skh-1:HR1 (hairless) mice, approximately six weeks old were killed by cervical dislocation. Single cell suspensions were made from the spleen and erythrocytes were lysed in buffer (0.14M NH4Cl, 17 mM Tris, pH 7.2). The remaining splenocytes were cultured in RPMI-1640 (Gibco) supplemented with 10% (v:v) FBS, 200 mM L-glutamine, penicillin/streptomycin and […] 2-mercaptoethanol. Splenocytes were added to quadruplicate wells containing either concanavalin A (ConA, Sigma-Aldrich—0.4 μg/well), LPS (Sigma-Aldrich—1 μg/well) or no mitogen, as well 10 μM of test compound in DMSO. Samples were analysed after a 3 day incubation at 37° C. in 5% CO2 in air. Methylthiazoletetrazolium (MTT) is bioreduced by viable cells into a coloured formazan product that is soluble in DMSO. Thus the quantity of formazan product is directly proportional to the number of living cells in culture, and can be measured using a spectrophotometer at 570 nm. MTT was added to each well, incubated for a further 4 hrs and then colour developed with 0.04N HCl in isopropanol. Culture supernatants were stored after collection at −80° C. and both T and B cells analysed by ELISA (BD Biosciences) for IFN-γ (a Th-1 cytokine) and for T cells alone, IL-6 (a Th-2 cytokine).

TXA2 = TXA2 synthesis in RA-stimulated U937 cells; type: cell-based, human; settings: A23187 0.5 μM, 30 min
Method: U937 cells were thawed and resuspended in RPMI and 10% FCS at 2×10^5 cells per ml. The cells were incubated in 5% CO2 at 37° C. and expanded in growing culture to at least 6.4×10^7 total cells. The cells were then resuspended in fresh medium and cultured with 5 μM retinoic acid (RA) at 2×10^5 cells per ml for a further 3 days (72 h). RA treated cells were washed 2× in serum-free RPMI and resuspended in serum-free medium at 5×10^6 cells per ml. The cells were aliquotted into Teflon tubes at 1 ml per tube. Working stock solutions of compounds (1) and (3) were prepared at 0.1 mM, 1 mM and 10 mM as described above. For each working dilution, 10 μl was added to 1 ml cells to achieve a final concentration of 0 (DMSO alone), 1, 10, and 100 μM for each test compound. Cells were incubated in triplicate with each concentration of test compound for 15 min at 37° C. After 15 min pre-incubation, each 1 ml tube of cells received 5 μl of a […] solution of the calcium ionophore A23187 (to achieve 0.5 μM A23187). Incubation at 37° C. was continued for a further 30 min. After incubation, supernatants were collected by centrifugation at 2000 rpm for 10 min and stored at −20° C. until required for assay.

[4] = Pharmacokinetics after a single oral dose in mice; type: in vivo, mouse; settings: urine, oral 25 mg/kg; for AUC: mouse
[5] = treated rats compared with controls

**Q.** Which “Effect on the viability of RAW 264.7 cells” value (RAW 264.7) does the source give for `CN(C)Cc1cc2c(cc1O)OCC(c1ccc(O)cc1)=C2` [Compound (1)] here?
**A.** little effect on the viability

**Q.** What about the IC50 (RAW 264.7; Mus musculus, RAW264.7) of the same compound?
**A.** 53.9 ± 1.2 µM

**Q.** And the “Average increase in the expression of eNOS” value (eNOS)?
**A.** 45%

**Q.** And the “Increase in expression of eNOS mRNA relative to control cells” value (eNOS; EXPT 1)?
**A.** 52 ± 25% (0.0001)

**Q.** And the “Increase in expression of eNOS mRNA relative to control cells” value (eNOS; EXPT 2)?
**A.** 53 ± 49 (0.009)

**Q.** What about the “Increase in expression of eNOS mRNA relative to control cells” value (eNOS; EXPT 3) of the same compound?
**A.** 30 ± 30 (0.014)

**Q.** What about the Cell viability (HCAECs) of the same compound?
**A.** cell viability was unaffected

**Q.** What about the “Cells in lavage fluid (×10^−7)” value [1] of the same compound?
**A.** 0.43 ± 0.21^b ×10^−7

**Q.** What about the “PMN in tissue sections (per 100 squares)” value [1] of the same compound?
**A.** 13.03 ± 7.10 per 100 squares

**Q.** What about the “Number of extravasated PMN in the pouch wall, fold less than controls” value [1, 5] of the same compound?
**A.** more than 3 fold

**Q.** And the “Number of exudate cells in the pouch cavity, fold less than controls” value [1, 5]?
**A.** more than 3 fold

**Q.** And the “Interaction with Cu^2+” value [2]?
**A.** did not interact with Cu^2+

**Q.** What about the “Effect on splenocyte (T and B cell) numbers” value [3] of the same compound?
**A.** markedly and significantly immunosuppressive to T cells and to a lesser extent, B cells

**Q.** What about the “TXB2” value (TXA2; 1 μM) of the same compound?
**A.** 35.833 ± 1.866 pg

**Q.** And the “TXB2” value (TXA2; 10 μM)?
**A.** 41.697 ± 2.275 pg

**Q.** And the “TXB2” value (TXA2; 100 μM)?
**A.** 21.708 ± 5.439 pg

**Q.** What about the AUC [4] of the same compound?
**A.** 9.3 µM·h

**Q.** And the “[max]free (μM, mean ± SD)” value [4]?
**A.** 5.6 ± 6.7 µM

**Q.** Which “Average increase in the expression of eNOS” value (eNOS) does the source give for `O=C(O)C1CCCN1Cc1cc2c(cc1O)OCC(c1ccc(O)cc1)=C2` (stereo not drawn) [Compound (3)] here?
**A.** 325%

**Q.** What about the “Increase in expression of eNOS mRNA relative to control cells” value (eNOS; EXPT 1) of the same compound?
**A.** 372 ± 138% (0.00001)

**Q.** What about the “Increase in expression of eNOS mRNA relative to control cells” value (eNOS; EXPT 2) of the same compound?
**A.** 277 ± 212 (0.002)

**Q.** What about the Cell viability (HCAECs) of the same compound?
**A.** cell viability was unaffected

**Q.** What about the “Cells in lavage fluid (×10^−7)” value [1] of the same compound?
**A.** 1.73 ± 0.84 ×10^−7

**Q.** And the “PMN in tissue sections (per 100 squares)” value [1]?
**A.** 35.85 ± 12.89 per 100 squares

**Q.** What about the “Effect on splenocyte (T and B cell) numbers” value [3] of the same compound?
**A.** little effect on cell numbers

**Q.** And the “TXB2” value (TXA2; 1 μM)?
**A.** 18.434 ± 0.367 pg

**Q.** And the “TXB2” value (TXA2; 10 μM)?
**A.** 26.276 ± 9.76 pg

**Q.** What about the “TXB2” value (TXA2; 100 μM) of the same compound?
**A.** 12.668 ± 3.506 pg

**Q.** And the AUC [4]?
**A.** 34 µM·h

**Q.** What about the “[max]free (μM, mean ± SD)” value [4] of the same compound?
**A.** 3.9 ± 2.4 µM
